Experimental data as given in patent US8129370B2, “Use of oxicam compounds” (Dritte PatentPortfolio Beteiligungsgesellschaft MBH & Co. KG, priority 2003, dated 2012).

Tests used:
COX-2 [1] = molecular target: T1, COX-2 (Homo sapiens, UniProt P35354); experiment: inhibition of COX-2 (isozyme of the eicosanoid metabolism); format: biochemical
T1 construct: LPS-stimulated Mono Mac 6-cells (COX-2); endogenous in cells; host or cells: LPS-stimulated Mono Mac 6 cells
T1 sequence (P35354 18-604): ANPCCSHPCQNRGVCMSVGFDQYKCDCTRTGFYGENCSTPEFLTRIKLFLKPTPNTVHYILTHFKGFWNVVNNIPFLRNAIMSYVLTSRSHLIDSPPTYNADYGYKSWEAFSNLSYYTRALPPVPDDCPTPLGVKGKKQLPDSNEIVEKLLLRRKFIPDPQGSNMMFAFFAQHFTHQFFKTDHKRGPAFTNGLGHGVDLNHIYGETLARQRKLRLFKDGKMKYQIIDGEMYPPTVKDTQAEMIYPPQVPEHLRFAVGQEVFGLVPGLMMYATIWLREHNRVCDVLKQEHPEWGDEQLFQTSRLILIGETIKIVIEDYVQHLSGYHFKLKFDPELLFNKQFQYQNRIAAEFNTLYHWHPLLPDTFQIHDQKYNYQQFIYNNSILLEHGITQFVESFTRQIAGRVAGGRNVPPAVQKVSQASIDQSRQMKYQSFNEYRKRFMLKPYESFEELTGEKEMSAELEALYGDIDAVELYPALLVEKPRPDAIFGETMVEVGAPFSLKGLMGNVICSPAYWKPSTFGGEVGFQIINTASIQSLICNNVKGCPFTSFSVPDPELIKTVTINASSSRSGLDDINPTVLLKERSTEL

COX-2 [2] = molecular target: T1, COX-2; experiment: inhibition of eicosanoid formation in LPS-stimulated Mono Mac 6-cells (COX-2); format: cell-based; details: FIG. 7
plasma half-life = details: in vivo
[3] = Pruss et al. 1989; cited from earlier work
[4] = cited from earlier work
COX-1 [5] = molecular target: T2, COX-1 (Homo sapiens, UniProt P23219); experiment: inhibition of COX-1 (isozyme of the eicosanoid metabolism); format: biochemical; parameters: eicosanoid formation in HEL cells (COX-1); endogenous in cells; host or cells: HEL cells
T2 sequence (P23219 24-599): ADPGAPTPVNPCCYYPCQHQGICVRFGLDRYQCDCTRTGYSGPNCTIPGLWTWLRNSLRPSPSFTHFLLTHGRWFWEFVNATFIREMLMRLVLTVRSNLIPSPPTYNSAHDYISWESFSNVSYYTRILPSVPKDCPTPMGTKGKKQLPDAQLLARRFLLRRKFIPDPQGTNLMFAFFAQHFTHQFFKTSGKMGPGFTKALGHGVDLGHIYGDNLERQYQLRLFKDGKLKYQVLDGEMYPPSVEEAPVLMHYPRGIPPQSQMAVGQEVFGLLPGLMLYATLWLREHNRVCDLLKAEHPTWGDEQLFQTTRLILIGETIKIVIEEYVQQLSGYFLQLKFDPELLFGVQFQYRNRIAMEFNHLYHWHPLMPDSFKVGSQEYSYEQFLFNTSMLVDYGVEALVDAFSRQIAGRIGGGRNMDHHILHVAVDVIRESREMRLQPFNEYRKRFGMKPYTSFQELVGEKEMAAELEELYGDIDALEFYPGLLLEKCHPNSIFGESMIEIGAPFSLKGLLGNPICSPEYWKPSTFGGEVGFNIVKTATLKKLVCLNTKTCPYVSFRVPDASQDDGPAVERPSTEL

COX-1 [6] = molecular target: T2, COX-1; experiment: inhibition of eicosanoid formation in HEL cells (COX-1); format: cell-based; parameters: eicosanoid formation in HEL cells (COX-1); endogenous in cells; host or cells: HEL cells; details: FIG. 7
[7] = test system: amyloid precursor protein (APP); details: cited from earlier work
Aβ42 = details: WO 01/78721 A1; cited from earlier work

CN1C(C(=O)Nc2ccccn2)=C(O)c2sc(Cl)cc2S1(=O)=O [lornoxicam]
inhibition of COX-2 (COX-2 [1]): inhibits | inhibition of the eicosanoid formation (COX-2 [2]): inhibition | plasma half-life (plasma half-life): short | crossing the blood-brain barrier [3]: not capable of crossing the blood-brain barrier | severe undesired events reported ([4]; in one million of prescriptions): less than 10 | gastro-intestinal and other tolerance ([4]; in vivo): good | side-effects found during observation of usage ([4]; in vivo): below 0.05% | inhibition of COX-1 (COX-1 [5]): inhibits | inhibition of the eicosanoid formation (COX-1 [6]): inhibition

CC(C)Cc1ccc(C(C)C(=O)O)cc1 (stereo not shown) [Ibuprofen]
portion of the amyloid β-42 peptide [7]: lowered | portion of the non-amyloidogenic soluble APP [7]: increased

Cc1cc(NC(=O)C2=C(O)c3ccccc3S(=O)(=O)N2C)no1 [isoxicam]
influence on the expression of Aβ42 (Aβ42): do not influence the expression of Aβ42 and even increase the expression thereof, respectively

CN1C(C(=O)Nc2ccccn2)=C(O)c2ccccc2S1(=O)=O [peroxicam]
influence on the expression of Aβ42 (Aβ42): do not influence the expression of Aβ42 and even increase the expression thereof, respectively
